From patent publication US12084473B2, “β-D-2′-deoxy-2′-α-fluoro-2′-β-C-substituted-2-modified-N6-substituted purine nucleotides for HCV treatment” (Atea Pharmaceuticals, Inc., priority 2015, dated 2024) come the findings set out here.

pEC50: −log10 of the molar value. Like-named read-outs stand apart in the source and are kept apart here. Bounds are passed on as bounds.

In data set [1] the test system is HCV genotype 1b luciferase reporter replicon. Kind of data set: microbe, parasite or virus in culture. Type of data set: cell-based. The note with it: for EC95: Huh-7 luc/neo ET cells, 72 hours, luciferase, read-out: HCV Replicon EC50/EC95: EC95; for Fold increase in activity compared to parent nucleoside: Table 7. The procedure: (§1) The plates were cultured for 24 hours prior to the addition of compounds. Six serial one half log dilutions of the test articles (high test concentration of 100.0 μM or high test concentration of 1.0 μM) and human interferon-alpha2b (high test 10.0 U/ml) were prepared in cell culture medium and added to the cultured cells in triplicate wells for each dilution. Six wells in the test plates received medium alone as an untreated control. Following 72 hours of culture in the presence of compound, one of the plates was used for the determination of cytotoxicity by staining with XTT and the other for antiviral efficacy by determination of luciferase reporter activity. Cytotoxicity and efficacy data were collected and imported into a customized Excel workbook for determination of the TC50 and EC50 values. […] The y-axis is the percent of virus control and the x-axis is the concentration of drug in μM. […] The y-axis is the percent of virus control and the x-axis is the concentration of drug in M.
In general terms: In antiviral work, replicon cells carry a viral genome segment that copies itself.

Data set [2] is described as follows: Cytotoxicity by XTT staining in replicon cells. Conditions: human. Here is the method: as §1
Data set [3] relates to HCV genotype 1b luciferase reporter replicon. Description: microbe, parasite or virus in culture. It counts as cell-based. Conditions: Hepatitis C virus, HuH-7-Luc/Neo-ET, 72 h, read-out: HCV Replicon EC50/EC95: EC50.

Regarding `CC(C)OC(=O)[C@H](C)N[P@@](=O)(OCC1O[C@@H](n2cnc3c(N(C)C)nc(N)nc32)[C@](C)(F)[C@@H]1O)Oc1ccccc1` (stereo partly drawn) [Compound 26, isopropyl ((((R)-(2R,3R,4R,5R)-5-(2-amino-6-(dimethylamino)-9H-purin-9-yl)-4-fluoro-3-hydroxy-4-methyltetrahydrofuran-2-yl)methoxy)-phenoxy-phosphoryl)-L-alaninate], the EC95 in data set [1] (Hepatitis C virus) was found to be 57 nM. Moreover, the CC50 – broadly, the concentration giving 50% cytotoxicity – at 72 h in data set [2] is > 100000 nM. For the same molecule, in data set [3], the pEC50 was 7.45.

Regarding `CNc1nc(NC(=O)C(C)C)nc2c1ncn2[C@@H]1OC(COP(=O)(N[C@@H](C)C(=O)OC(C)C)Oc2ccccc2)[C@@H](O)[C@@]1(C)F` (stereo partly drawn) [Compound 16, isopropyl ((((R,S)-(2R,3R,4R,5R)-5-(2-isobutyramido-6-methylamino-9H-purin-9-yl)-4-fluoro-3-hydroxy-4-methyltetrahydrofuran-2-yl)methoxy)-phenoxy-phosphoryl)-L-alaninate], the EC95 in data set [1] (Hepatitis C virus) stood at 3690 nM. Further, the CC50 at 72 h in data set [2] was > 100000 nM. The pEC50 in data set [3] is 6.24.

As to `CNc1nc(N)nc2c1ncn2[C@@H]1OC(CO[P@](=O)(N[C@@H](C)C(=O)OC(C)C)Oc2ccccc2)[C@@H](O)[C@@]1(C)F` (stereo partly drawn) [Compound 5-1], the EC95 in data set [1] (Hepatitis C virus) was found to be 282 nM. In addition, the “Fold increase in activity compared to parent nucleoside” value (from here on “Fold increase … to parent nucleoside”) in data set [1] is reported as >280. Further, the CC50 at 72 h in data set [2] was > 100000 nM. Also, the pEC50 in data set [3] was 7.26.

Regarding `CCOc1nc(N)nc2c1ncn2[C@@H]1O[C@@H]2CO[P@](=O)(OC(C)C)O[C@H]2[C@@]1(C)F`, in data set [1] (Hepatitis C virus), the EC95 is 259 nM. In addition, the CC50 at 72 h in data set [2] was > 100000 nM. Besides, the pEC50 in data set [3] is 7.35.

Take `CC(C)OC(=O)[C@H](C)NP(=O)(OCC1O[C@@H](n2cnc3c(N(C)C)nc(N)nc32)[C@](C)(F)[C@@H]1O)Oc1ccccc1` (mixture of isomers) [Compound 7, isopropyl ((((R,S)-(2R,3R,4R,5R)-5-(2-amino-6-(dimethylamino)-9H-purin-9-yl)-4-fluoro-3-hydroxy-4-methyltetrahydrofuran-2-yl)methoxy)-phenoxy-phosphoryl)-L-alaninate]: the EC95 in data set [1] (Hepatitis C virus) was determined as 71 nM. Also, the pEC50 in data set [1] (Hepatitis C virus, read-out: EC50 in a replicon assay) is 7.92; in data set [3], 7.92. Besides, in data set [1], the “Fold increase … to parent nucleoside” value is >890. Besides, the “fold increase in activity (versus parent nucleoside)” value in data set [1] (listed as stabilized phosphate prodrug (phosphoramidate) of β-D-2′-deoxy-2′-α-fluoro-2′-β-) is recorded as > 1,300; in data set [1] (listed as stabilized racemic phosphate prodrug (phosphoramidate) of β-D-2′-deoxy-2′-α-fluo), > 890. Further, in data set [2], the half-maximal cytotoxic concentration (CC50) at 72 h was > 100000 nM.

In the case of `CCN(C)c1nc(N)nc2c1ncn2[C@@H]1O[C@H](CO)[C@@H](O)[C@@]1(C)F` [Compound 17, (2R,3R,4R,5R)-5-(2-amino-6-(N-methyl-ethylamino)-9H-purin-9-yl)-4-fluoro-2-(hydroxymethyl)-4-methyltetrahydrofuran-3-ol], the EC95 in data set [1] (Hepatitis C virus) amounted to 65400 nM. Besides, the cytotoxic concentration (CC50) at 72 h in data set [2] is > 100000 nM. For the same molecule, the pEC50 in data set [3] was 4.94.

With `C#C[C@@]1(F)[C@H](O)C(COP(=O)(N[C@@H](C)C(=O)OC(C)C)Oc2ccccc2)O[C@H]1n1cnc2c(N(C)C)nc(N)nc21` (stereo partly drawn) [Compound 45, isopropyl ((((R,S)-(2R,3R,4R,5R)-5-(2-amino-6-dimethylamino-9H-purin-9-yl)-4-fluoro-3-hydroxy-4-ethynyltetrahydrofuran-2-yl)methoxy)-phenoxy-phosphoryl)-L-alaninate], in data set [1] (Hepatitis C virus), the EC95 was determined as 876 nM. For the same molecule, the CC50 at 72 h in data set [2] was 680 nM. In addition, the pEC50 in data set [3] was 6.80.

In the case of `C#C[C@@]1(F)[C@H](O)C(COP(=O)(N[C@@H](C)C(=O)OC(C)C)Oc2ccccc2)O[C@H]1n1cnc2c(N(C)C3CC3)nc(N)nc21` (stereo partly drawn) [Compound 47, isopropyl ((((R,S)-(2R,3R,4R,5R)-5-(2-amino-6-(N-methylcyclopropylamino)-9H-purin-9-yl)-4-fluoro-3-hydroxy-4-ethynyltetrahydrofuran-2-yl)methoxy)-phenoxy-phosphoryl)-L-alaninate], the EC95 in data set [1] (Hepatitis C virus) turned out to be 1720 nM. For the same molecule, the CC50 at 72 h in data set [2] is 1680 nM. Also, the pEC50 in data set [3] was 6.47.

For the molecule `CC(C)OC(=O)[C@H](C)NP(=O)(OCC1O[C@@H](n2cnc3c(N)nc(N)nc32)[C@](C)(F)[C@@H]1O)Oc1ccccc1` (stereo partly drawn), the EC95 in data set [1] (Hepatitis C virus) stood at 9040 nM. Moreover, in data set [1], the “Fold increase … to parent nucleoside” value was 3. In data set [2], the CC50 at 72 h is > 100000 nM. The pEC50 in data set [3] was 5.68.
